≈ marks a conversion by molar mass, not a printed value. Read-outs that look alike come from different tables or passages of the source. Marks after values point to notes of the source that are not given here.
Columns and labels:
A. fumigatus = experiment: MIC testing (CLSI broth dilution); type: cell-based; conditions: Aspergillus fumigatus
Protocol: (§1) MICs were determined using Clinical and Laboratory Standards Institute guidelines ([48], [49]). All yeasts were cultured overnight in 3 mL YPD at 30°C, then washed twice in sterile phosphate-buffered saline (PBS). Twofold serial dilutions of each drug were prepared in RMPI + MOPS, then 1 × 10^3 cells were added per well. For mold species, wells were inoculated with 1.25 × 10^3 conidia per well. Plates were incubated at 37°C for 24 (Candida spp. and S. cerevisiae), 48 (Aspergillus spp., M. circinelloides, S. apiospermum, and L. prolificans), or 72 (C. neoformans and F. oxysporum) hours. S. cerevisiae BY4743 MICs were tested in YPD due to nutritional requirements of this strain. Each assay was performed in technical duplicate in at least two independent experiments performed on different days.

C. glabrata = experiment: MIC testing (CLSI broth dilution); type: cell-based; conditions: Nakaseomyces glabratus; strain KK2001; CLSI conditions
Protocol: as §1

C. neoformans = experiment: MIC testing (CLSI broth dilution); type: cell-based; conditions: Cryptococcus neoformans
Protocol: as §1

F. oxysporum = experiment: MIC testing (CLSI broth dilution); type: cell-based; conditions: Fusarium oxysporum; strain DUMC Fo, clinical isolate; CLSI conditions, 72 h
Protocol: as §1

L. prolificans = experiment: MIC testing (CLSI broth dilution); type: cell-based; conditions: Lomentospora prolificans; strain 90853; CLSI conditions
Protocol: as §1

M. circinelloides = experiment: MIC testing (CLSI broth dilution); type: cell-based; conditions: Mucor circinelloides; strain CBS277.49; CLSI conditions
Protocol: as §1

S. apiospermum = experiment: MIC testing (CLSI broth dilution); type: cell-based; conditions: Scedosporium apiospermum; strain MYA3635 (lab reference strain); CLSI conditions
Protocol: as §1

A. terreus = experiment: MIC testing (CLSI broth dilution); type: cell-based, Aspergillus terreus
Protocol: as §1

C. auris = experiment: MIC testing (CLSI broth dilution); type: cell-based, Candida auris; conditions: Candidozyma auris, CLSI conditions
Protocol: as §1

A. fumigatus biofilms = experiment: A. fumigatus hyphal (biofilm) activity, resazurin; type: cell-based, Aspergillus fumigatus; conditions: conidia germinated 14 hours
Protocol: To determine antifungal activity against A. fumigatus hyphae, a 96-well plate was inoculated with 1 × 10^3 conidia per well in 100 µL RPMI + MOPS with the edge wells filled with 200 µL sterile water to minimize edge effects. Plates were incubated at 37°C for 14 hours. A twofold dilution series of 1 or 7 was prepared in RPMI + MOPS at 2× concentration with 0.002% resazurin, then 100 µL of the drug was added to wells, and plates were incubated for an additional 24 hours. Fluorescence was measured with an excitation wavelength of 570 nm and an emission wavelength of 615 nm. Data are representative of two independent experiments performed in biological triplicate.

[1] = system: A. fumigatus CEA10 hyphae; experiment: Propidium iodide viability staining of treated hyphae; type: cell-based, Aspergillus fumigatus
Protocol: For PI staining of 1-treated hyphae, 0.5 × 10^3conidia/mL in 100 µL RPMI + MOPS were inoculated into chambers of an eight-well chamber slide and incubated at 37°C for 14 hours. 100 µL of media containing a 2× concentration of 1 or an equivalent amount of DMSO was added to each chamber, and slides were incubated for an additional 24 hours. Media were removed from chambers, replaced with PBS + 40 µM propidium iodide (Invitrogen, Cat # P3566), then slides were incubated at room temperature for 20 min in the dark. Images were acquired on a Nikon epifluorescence microscope with a Nikon DS-Fi1 camera and Nikon Elements image acquisition and analysis software. Images were processed equally with linear brightness and contrast adjustments in Photoshop, only to increase ease of viewing. Representative images of two independent experiments are shown with two biological replicates each.

[2] = system: A. fumigatus collagenase secretion; experiment: Detection of secreted collagenase by azocoll; type: cell-based, Aspergillus fumigatus
Protocol: 1 × 10^6 CEA10 conidia/mL were cultured in 25 mL liquid GMM for 18 hours, then mycelia were washed with sterile ddH2O and transferred to 10% FBS-MM and treated with DMSO or the indicated concentration of drugs. Cultures were incubated at 37°C, 250 rpm, for an additional 24 hours, then the supernatant and biomass were collected. One milliliter of supernatant was spun at top speed for 5 min. Azocoll of <50 mesh (Sigma, Cat # 194932) was washed in buffer (50 mM Tris, pH 7.5, 1 mM NaCl, and 0.01% sodium azide) then resuspended to 5 mg/mL. Fifteen microliters of culture supernatant was added to the 2 mL azocoll solution and incubated at 37°C with shaking at 300 rpm for 3 hours in the dark. Reactions were spun at maximum speed for 3 min; 200 µL of supernatant was then transferred to a 96-well plate; and Abs 520 was measured. Biomass was lyophilized, and absorbance readings were normalized to milligram tissue. Data represent the mean and SEM of biological triplicates with technical duplicates except for compounds 5 and 7, which are biological duplicates due to the limited availability of the drug and the required culture size for this assay.

## OC1CC(c2cc(N3CCC(CCc4ccccc4)CC3)ncn2)C1 (stereo not drawn) [compound 1]
A. fumigatus; 48 h, strain CEA10, CLSI conditions, 48 h, read-out: MIC
  MIC: 16 µg/mL (≈ 47.4 µM)
A. fumigatus; ATCC13073, strain ATCC13073, CLSI conditions, read-out: MIC
  MIC: 8 µg/mL (≈ 23.7 µM)
A. fumigatus; strain AF293, CLSI conditions, read-out: MIC
  MIC: 16 µg/mL (≈ 47.4 µM)
A. fumigatus; strain S001, clinical isolate, CLSI conditions, read-out: MIC
  MIC: 8 µg/mL (≈ 23.7 µM)
A. fumigatus; strain S003, clinical isolate, CLSI conditions, read-out: MIC
  MIC: 4 µg/mL (≈ 11.9 µM)
A. fumigatus; strain SPF93 (voriconazole-susceptible parent), CLSI conditions, read-out: MIC
  MIC: 8 µg/mL (≈ 23.7 µM)
A. fumigatus; strain SPF98, drug-resistant isolate (cyp51A TR34 L98H), CLSI conditions
  MIC: 8 µg/mL (≈ 23.7 µM)
A. fumigatus; A. fumigatus reference strains and clinical isolates, read-out: MIC
  MIC: 8 to 16 µg/mL (≈ 23.7 to 47.4 µM)
C. glabrata
  MIC: 64 µg/mL (≈ 190 µM)
C. neoformans; 72 h, strain H99, CLSI conditions
  MIC: 1 µg/mL (≈ 2.96 µM)
C. neoformans; strain DUMC118, clinical isolate, CLSI conditions
  MIC: 2 µg/mL (≈ 5.93 µM)
C. neoformans; strain DUMC138, clinical isolate, CLSI conditions
  MIC: 1 µg/mL (≈ 2.96 µM)
C. neoformans; strain JEC21, CLSI conditions
  MIC: 2 µg/mL (≈ 5.93 µM)
C. neoformans; strain not named
  MIC: 2 µg/mL (≈ 5.93 µM)
F. oxysporum
  MIC: > 64 µg/mL
L. prolificans
  MIC: 8 µg/mL (≈ 23.7 µM)
M. circinelloides
  MIC: 16 µg/mL (≈ 47.4 µM)
S. apiospermum
  MIC: 2 µg/mL (≈ 5.93 µM)
A. terreus; Aspergillus terreus, strain S010, clinical isolate, CLSI conditions
  MIC: 8 µg/mL (≈ 23.7 µM)
A. terreus; strain S023, clinical isolate, no clear well, growth reduced by ≥50% at MEC
  Minimum effective concentration (MEC): 16^b µg/mL
C. auris; strain 0390
  MIC: > 128 µg/mL
C. auris; strain 3081, drug-resistant clinical isolate
  MIC: 8 µg/mL (≈ 23.7 µM)
A. fumigatus biofilms; Aspergillus fumigatus, then treated 24 hours, read-out: IC50 of hyphal growth
  IC50: 1.66 µg/mL (≈ 4.92 µM)
A. fumigatus biofilms; escalating doses 24 hours
  inhibition of hyphal growth: dose-dependent inhibition of hyphal growth
[1]; 8 µg/mL for 24 hours after 14 hours germination
  propidium iodide staining of hyphae: did not show increased staining relative to vehicle-treated controls
[1]; 32 µg/mL for 24 hours after 14 hours germination
  propidium iodide staining of hyphae: stained brightly
[1]; at concentrations 2× the MIC
  type of activity against biofilms: fungicidal
[2]; 1 µg/mL, 24 hours in 10% FBS-MM
  collagenase secretion: did not change collagenase secretion
[2]; 2, 4, 8 and 16 µg/mL, 24 hours in 10% FBS-MM, dose-dependent
  collagenase secretion: significantly inhibited
[2]; treated with 1/2 MIC of each compound
  collagenase secretion: inhibition of collagenase secretion was similar
